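Each compound was tested at five concentrations against cells in 96-well plates for 48 hours. TGI marks complete inhibition of growth.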
What was measured:
Test in all cases: growth of human tumour cells (NCI), 48 h
KM20L2 colon = system: KM20L2 colon
M14 melanoma = system: M14 melanoma
MOLT-4 leukemia = system: MOLT-4 leukemia
SK-MEL-5 melanoma = system: SK-MEL-5 melanoma
SR leukemia = system: SR leukemia
EKVX NSCLC = system: EKVX NSCLC
NCI-H226 lung = system: NCI-H226 lung
MALME-3M melanoma = system: MALME-3M melanoma
NCI-H23 lung = system: NCI-H23 lung
DMS 273 small cell lung = system: DMS 273 small cell lung
U251 CNS = system: U251 CNS
M19-MEL melanoma = system: M19-MEL melanoma
UACC-257 melanoma = system: UACC-257 melanoma
HL-60(TB) leukemia = system: HL-60(TB) leukemia
SNB-75 CNS = system: SNB-75 CNS
OVCAR-3 ovarian = system: OVCAR-3 ovarian
RXF 393 renal = system: RXF 393 renal
RXF-631 renal = system: RXF-631 renal
RPMI-8226 leukemia = system: RPMI-8226 leukemia
SK-MEL-28 melanoma = system: SK-MEL-28 melanoma
786-0 renal = system: 786-0 renal
COLO 205 colon = system: COLO 205 colon
KM12 colon = system: KM12 colon
HCC-2998 colon = system: HCC-2998 colon
K-562 leukemia = system: K-562 leukemia
IGROV1 ovarian = system: IGROV1 ovarian
SNB-78 CNS = system: SNB-78 CNS
SK-MEL-2 melanoma = system: SK-MEL-2 melanoma
SF-295 CNS = system: SF-295 CNS
NCI-H522 lung = system: NCI-H522 lung
LXFL 529 NSCLC = system: LXFL 529 NSCLC
SF-539 CNS = system: SF-539 CNS
OVCAR-8 ovarian = system: OVCAR-8 ovarian
SW-620 colon = system: SW-620 colon
HOP-92 NSCLC = system: HOP-92 NSCLC
SNB-19 CNS = system: SNB-19 CNS
NCI-H460 lung = system: NCI-H460 lung
CAKI-1 renal = system: CAKI-1 renal
SN12C renal = system: SN12C renal
HCT-15 colon = system: HCT-15 colon
HOP-62 NSCLC = system: HOP-62 NSCLC
ACHN renal = system: ACHN renal
SF-268 CNS = system: SF-268 CNS
DLD-1 colon = system: DLD-1 colon
UO-31 renal = system: UO-31 renal
SK-OV-3 ovarian = system: SK-OV-3 ovarian
XF 498 CNS = system: XF 498 CNS
HT29 colon = system: HT29 colon
LOX IMVI melanoma = system: LOX IMVI melanoma
TK-10 renal = system: TK-10 renal
UACC-62 melanoma = system: UACC-62 melanoma
CCRF-CEM leukemia = system: CCRF-CEM leukemia
A549 NSCLC = system: A549 NSCLC
OVCAR-5 ovarian = system: OVCAR-5 ovarian
OVCAR-4 ovarian = system: OVCAR-4 ovarian
DMS 114 small cell lung = system: DMS 114 small cell lung
HCT-116 colon = system: HCT-116 colon
A498 renal = system: A498 renal
HS 578T breast = system: HS 578T breast
DU-145 prostate = system: DU-145 prostate
MDA-MB-435 = system: MDA-MB-435
PC-3 prostate = system: PC-3 prostate
MDA-N = system: MDA-N
MDA-MB-231 breast = system: MDA-MB-231 breast
NCI/ADR-RES ovarian = system: NCI/ADR-RES ovarian
BT-549 breast = system: BT-549 breast
MCF7 breast = system: MCF7 breast
T-47D breast = system: T-47D breast

SMILES: COC1=CC(=Nc2c(Cl)cc(Cl)cc2OC(=O)c2ccc([N+](=O)[O-])cc2)C=C(OC)C1=O
- TGI (KM20L2 colon): 32.8 µM
- TGI (M14 melanoma): 25.8 µM
- TGI (MOLT-4 leukemia): 26.7 µM
- TGI (SK-MEL-5 melanoma): 20.4 µM
- TGI (SR leukemia): 15.3 µM
- TGI (EKVX NSCLC): 29.5 µM
- TGI (NCI-H226 lung): 28.7 µM
- TGI (MALME-3M melanoma): 28.9 µM
- TGI (NCI-H23 lung): 22.9 µM
- TGI (DMS 273 small cell lung): 30.5 µM
- TGI (U251 CNS): 27.1 µM
- TGI (M19-MEL melanoma): 10.8 µM
- TGI (UACC-257 melanoma): 24.2 µM
- TGI (HL-60(TB) leukemia): 12.1 µM
- TGI (SNB-75 CNS): 27.8 µM
- TGI (OVCAR-3 ovarian): 20.9 µM
- TGI (RXF 393 renal): 24.6 µM
- TGI (RXF-631 renal): 11.1 µM
- TGI (RPMI-8226 leukemia): > 39.1 µM
- TGI (SK-MEL-28 melanoma): 30.5 µM
- TGI (786-0 renal): 28 µM
- TGI (COLO 205 colon): 33.6 µM
- TGI (KM12 colon): 29.4 µM
- TGI (HCC-2998 colon): 32.4 µM
- TGI (K-562 leukemia): 27 µM
- TGI (IGROV1 ovarian): 31.2 µM
- TGI (SNB-78 CNS): 56.9 µM
- TGI (SK-MEL-2 melanoma): 29.9 µM
- TGI (SF-295 CNS): 23.7 µM
- TGI (NCI-H522 lung): 23.6 µM
- TGI (LXFL 529 NSCLC): 18.5 µM
- TGI (SF-539 CNS): 23.4 µM
- TGI (OVCAR-8 ovarian): 20.2 µM
- TGI (SW-620 colon): 26.8 µM
- TGI (HOP-92 NSCLC): 14.8 µM
- TGI (SNB-19 CNS): 30 µM
- TGI (NCI-H460 lung): 31.3 µM
- TGI (CAKI-1 renal): 31.7 µM
- TGI (SN12C renal): 24.3 µM
- TGI (HCT-15 colon): 20.8 µM
- TGI (HOP-62 NSCLC): 36.2 µM
- TGI (ACHN renal): 22.6 µM
- TGI (SF-268 CNS): 23.2 µM
- TGI (DLD-1 colon): 30 µM
- TGI (UO-31 renal): 24.3 µM
- TGI (SK-OV-3 ovarian): 30.8 µM
- TGI (XF 498 CNS): 21.5 µM
- TGI (HT29 colon): 33.5 µM
- TGI (LOX IMVI melanoma): 5.67 µM
- TGI (TK-10 renal): 37.4 µM
- TGI (UACC-62 melanoma): 15.6 µM
- TGI (CCRF-CEM leukemia): > 25.9 µM
- TGI (A549 NSCLC): 23.4 µM
- TGI (OVCAR-5 ovarian): 33.7 µM
- TGI (OVCAR-4 ovarian): 21.9 µM
- TGI (DMS 114 small cell lung): 8.52 µM
- TGI (HCT-116 colon): 18.9 µM

SMILES: CN(C)CCNc1ccc2nnn3c4ccccc4c(=O)c1c23
- TGI (A498 renal): 8.96 µM
- TGI (KM20L2 colon): 11.6 µM
- TGI (HS 578T breast): 9.8 µM
- TGI (M14 melanoma): 9.03 µM
- TGI (MOLT-4 leukemia): 21 µM
- TGI (SK-MEL-5 melanoma): 5.35 µM
- TGI (SR leukemia): > 32.8 µM
- TGI (EKVX NSCLC): 13.4 µM
- TGI (NCI-H226 lung): 5.28 µM
- TGI (MALME-3M melanoma): 10.4 µM
- TGI (NCI-H23 lung): 11.6 µM
- TGI (DMS 273 small cell lung): 11.5 µM
- TGI (U251 CNS): 7.63 µM
- TGI (M19-MEL melanoma): 9.42 µM
- TGI (UACC-257 melanoma): 11.4 µM
- TGI (HL-60(TB) leukemia): 15.7 µM
- TGI (DU-145 prostate): 9.68 µM
- TGI (SNB-75 CNS): 10.4 µM
- TGI (MDA-MB-435): 13.8 µM
- TGI (OVCAR-3 ovarian): 12.8 µM
- TGI (PC-3 prostate): 7.79 µM
- TGI (MDA-N): 12.4 µM
- TGI (RXF 393 renal): 16.6 µM
- TGI (RXF-631 renal): 10.3 µM
- TGI (RPMI-8226 leukemia): 23.9 µM
- TGI (SK-MEL-28 melanoma): 15.1 µM
- TGI (786-0 renal): 16.5 µM
- TGI (COLO 205 colon): 5.9 µM
- TGI (MDA-MB-231 breast): 15.3 µM
- TGI (KM12 colon): 13.9 µM
- TGI (HCC-2998 colon): 13.1 µM
- TGI (K-562 leukemia): 18.9 µM
- TGI (IGROV1 ovarian): 26.5 µM
- TGI (SNB-78 CNS): 30.5 µM
- TGI (SK-MEL-2 melanoma): 13.9 µM
- TGI (SF-295 CNS): 13.8 µM
- TGI (NCI-H522 lung): 8.31 µM
- TGI (NCI/ADR-RES ovarian): 9.82 µM
- TGI (LXFL 529 NSCLC): 17.5 µM
- TGI (SF-539 CNS): 15.6 µM
- TGI (OVCAR-8 ovarian): 9.91 µM
- TGI (SW-620 colon): 11 µM
- TGI (HOP-92 NSCLC): 9.6 µM
- TGI (SNB-19 CNS): 34.8 µM
- TGI (NCI-H460 lung): 7.16 µM
- TGI (BT-549 breast): 32.3 µM
- TGI (CAKI-1 renal): 18.5 µM
- TGI (SN12C renal): 19.9 µM
- TGI (HCT-15 colon): 13 µM
- TGI (HOP-62 NSCLC): 14.2 µM
- TGI (ACHN renal): 7.01 µM
- TGI (SF-268 CNS): 18.8 µM
- TGI (DLD-1 colon): 22.9 µM
- TGI (UO-31 renal): 8.6 µM
- TGI (SK-OV-3 ovarian): 33.2 µM
- TGI (XF 498 CNS): 19.5 µM
- TGI (HT29 colon): 11 µM
- TGI (MCF7 breast): 25.2 µM
- TGI (LOX IMVI melanoma): 3.72 µM
- TGI (TK-10 renal): 12.7 µM
- TGI (UACC-62 melanoma): 11.6 µM
- TGI (CCRF-CEM leukemia): 20.6 µM
- TGI (A549 NSCLC): 6.56 µM
- TGI (OVCAR-5 ovarian): 11.4 µM
- TGI (OVCAR-4 ovarian): 9.44 µM
- TGI (DMS 114 small cell lung): 12.7 µM
- TGI (HCT-116 colon): 13.7 µM
- TGI (T-47D breast): 32.3 µM

— PubChem BioAssay (NCI)
